Here are results for 22 compounds from ChEMBL document CHEMBL2086347, “Antitrypanosomal and cysteine protease inhibitory activities of alkyldiamine cryptolepine derivatives” (Bioorg Med Chem Lett, 2012).

SMILES strings stand for the structures.

Series [1] in a line: Cytotoxicity against african green monkey Vero cells. It counts as cell-based. As to conditions: chlorocebus sabaeus.
A further series deals with Rhodesain (Trypanosoma brucei rhodesiense, UniProt Q95PM0). Put plainly: Inhibition of Trypanosoma brucei rhodesiense rhodesain.
Series [2] deals with T1, Cathepsin B-like cysteine protease (Trypanosoma brucei, UniProt Q6R7Z5).
T1 sequence (Q6R7Z5 whole entry): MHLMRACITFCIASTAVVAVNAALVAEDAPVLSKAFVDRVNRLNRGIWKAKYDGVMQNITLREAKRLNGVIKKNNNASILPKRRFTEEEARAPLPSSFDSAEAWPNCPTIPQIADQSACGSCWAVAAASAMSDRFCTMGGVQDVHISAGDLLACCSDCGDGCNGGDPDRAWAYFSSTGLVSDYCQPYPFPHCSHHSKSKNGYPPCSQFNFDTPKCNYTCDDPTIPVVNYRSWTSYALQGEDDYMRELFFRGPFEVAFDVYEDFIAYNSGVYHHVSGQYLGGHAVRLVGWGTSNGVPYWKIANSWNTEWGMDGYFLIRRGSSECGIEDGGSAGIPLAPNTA
Briefly: Inhibition of Trypanosoma brucei CatB.

Series [3] in a line: Selectivity index, ratio of CC50 for african green monkey Vero cells to IC50 for Trypanosoma brucei brucei. It is filed as functional.
A short description of series [4]: Inhibition of Trypanosoma cruzi cruzaine.
In series [5] the test system is Trypanosoma brucei brucei. Put plainly: Antitrypanosomal activity against Trypanosoma brucei brucei. It is filed as functional, organism-based.

Rhodesain, sequence (Q95PM0 whole entry): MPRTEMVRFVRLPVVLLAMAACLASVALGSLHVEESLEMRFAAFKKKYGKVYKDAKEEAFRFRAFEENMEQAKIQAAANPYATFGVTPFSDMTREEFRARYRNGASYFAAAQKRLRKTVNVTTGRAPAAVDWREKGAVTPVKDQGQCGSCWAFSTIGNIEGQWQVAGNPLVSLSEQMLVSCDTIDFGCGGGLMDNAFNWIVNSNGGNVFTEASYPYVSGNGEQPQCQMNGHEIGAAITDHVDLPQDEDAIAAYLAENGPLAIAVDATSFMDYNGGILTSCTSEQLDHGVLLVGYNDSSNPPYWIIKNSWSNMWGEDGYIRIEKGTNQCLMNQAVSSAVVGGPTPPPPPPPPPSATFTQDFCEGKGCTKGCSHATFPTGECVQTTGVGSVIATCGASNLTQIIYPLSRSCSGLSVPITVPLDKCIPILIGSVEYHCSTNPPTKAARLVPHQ

The compound `C[n+]1c2cc(Cl)ccc2c(NC2CCNCC2)c2[nH]c3ccccc3c21.[Cl-]` returned a CC50 in series [1] of 4.4 µM. In addition, the IC50 against Rhodesain came out at 0.5 µM; in series [2] it was 59 µM; in series [4], 1 µM; in series [5] it was 0.3 µM. The “Ratio CC50/IC50” value in series [3] is 147.
Turning to `C[n+]1c2cc(Cl)ccc2c(NC2CCNCC2)c2[nH]c3cc(Cl)ccc3c21.[Cl-]`, in series [1], half-maximal cytotoxicity (CC50) was put at 0.8 µM. Moreover, the IC50 against Rhodesain was 0.5 µM; in series [2], 43 µM; in series [4], 1 µM; in series [5], less than 0.006 µM. In series [3], the “Ratio CC50/IC50” value was 133.
As to `CCN(CC)CCCCNc1c2ccccc2[n+](C)c2c1[nH]c1ccccc12.[Cl-]`, in series [1], the CC50 was determined as 10 µM. Besides, the IC50 against Rhodesain was determined as 6 µM; in series [2] it was 55 µM; in series [4], 22 µM; in series [5], 0.03 µM. In addition, in series [3], the “Ratio CC50/IC50” value is 333.
As for `C[n+]1c2ccccc2c(Nc2ccc(N3CCCCC3)cc2)c2[nH]c3ccccc3c21.[Cl-]`, half-maximal cytotoxicity in series [1] (CC50) was put at 4.8 µM. Also, the IC50 at Rhodesain stood at 1 µM; in series [2] it was 76 µM; in series [4], 3 µM; in series [5] it was 0.08 µM. In series [3], the “Ratio CC50/IC50” value stood at 60.
The compound `CC(C)CN1CCC(Nc2c3ccccc3[n+](C)c3c2[nH]c2ccccc23)CC1.[Cl-]` displayed a CC50 in series [1] of 5 µM. Further, the IC50 at Rhodesain amounted to 2 µM; in series [2], 26 µM; in series [4] it was 8 µM; in series [5] it was 0.05 µM. Also, the “Ratio CC50/IC50” value in series [3] amounted to 100.
On to `C[n+]1c2ccccc2c(NC2CCN(Cc3ccccc3)CC2)c2[nH]c3ccccc3c21.[Cl-]`, for which the CC50 in series [1] stood at 2.2 µM. In addition, the IC50 turned out to be 4 µM against Rhodesain, 32 µM in series [2], 8 µM in series [4] and 0.03 µM in series [5]. Also, the “Ratio CC50/IC50” value in series [3] was 73.
For `C[n+]1c2ccccc2c(NC2CCN(Cc3ccccc3O)CC2)c2[nH]c3ccccc3c21.[Cl-]`, in series [1], the CC50 worked out at 2.6 µM. Also, the IC50 is 0.9 µM against Rhodesain, 26 µM in series [2], 6 µM in series [4] and 0.04 µM in series [5]. In addition, in series [3], the “Ratio CC50/IC50” value turned out to be 65.
In series [1], `C[n+]1c2ccccc2c(Nc2ccccc2)c2[nH]c3ccccc3c21.[Cl-]` came in with a CC50 of 0.6 µM. The IC50 worked out at 7 µM against Rhodesain, 99 µM in series [2], 15 µM in series [4] and 0.3 µM in series [5]. For the same compound, in series [3], the “Ratio CC50/IC50” value turned out to be 2.
As for `CCN(CC)Cc1ccc(Nc2c3ccccc3[n+](C)c3c2[nH]c2ccccc23)cc1O.[Cl-]`, in series [1], half-maximal cytotoxicity (CC50) was put at 0.8 µM. For the same compound, the IC50 was 5 µM on Rhodesain, 59 µM in series [2], 10 µM in series [4] and 0.03 µM in series [5]. Besides, the “Ratio CC50/IC50” value in series [3] was 27.
As for `C[n+]1c2ccccc2c(Nc2cccnc2)c2[nH]c3ccccc3c21.[Cl-]`, in series [1], it took 2.6 µM to reach half-maximal cytotoxicity (CC50). Besides, the IC50 against Rhodesain turned out to be 2 µM; in series [2], 59 µM; in series [4], 5 µM; in series [5], 0.3 µM. Further, the “Ratio CC50/IC50” value in series [3] is recorded as 8.6.
In series [1], `CCN(CC)CCCNc1c2ccc(Cl)cc2[n+](C)c2c1[nH]c1ccccc12.[Cl-]` yielded a CC50 of 1.3 µM. For the same compound, the IC50 against Rhodesain was 0.5 µM; in series [2], 64 µM; in series [4], 2 µM; in series [5], 0.02 µM. Further, the “Ratio CC50/IC50” value in series [3] is recorded as 65.
Compound `CCN(CC)CCNc1c2ccccc2[n+](C)c2c1[nH]c1ccccc12.[Cl-]` had a half-maximal cytotoxic concentration (CC50) in series [1] of 2.8 µM. Also, the IC50 at Rhodesain came to 11 µM; in series [2], 95 µM; in series [4], 23 µM; in series [5], 0.9 µM. In addition, the “Ratio CC50/IC50” value in series [3] is reported as 3.1.
Turning to `CN(C)CCCNc1c2ccccc2[n+](C)c2c1[nH]c1ccccc12.[Cl-]`, in series [1], the CC50 is 2.2 µM. Besides, the IC50 against Rhodesain turned out to be 6 µM; in series [2] it was 31 µM; in series [4] it was 14 µM; in series [5], 0.03 µM. The “Ratio CC50/IC50” value in series [3] is 73.
As for `CCN(CC)CCCNc1c2ccccc2[n+](C)c2c1[nH]c1ccccc12.[Cl-]`, in series [1], the CC50 was 2.5 µM. Further, the IC50 is 13 µM against Rhodesain, 97 µM in series [2], 34 µM in series [4] and 0.05 µM in series [5]. The “Ratio CC50/IC50” value in series [3] is listed as 40.
With `CC(C)NCCCNc1c2ccccc2[n+](C)c2c1[nH]c1ccccc12.[Cl-]`, in series [1], the CC50 is 3 µM. Further, the IC50 on Rhodesain worked out at 26 µM; in series [2] it was 62 µM; in series [4] it was 42 µM; in series [5], 0.1 µM. For the same compound, the “Ratio CC50/IC50” value in series [3] came out at 30.
In series [1], `CCN(CC)CCCC(C)Nc1c2ccccc2[n+](C)c2c1[nH]c1ccccc12.[Cl-]` (stereo unspecified) returned a CC50 of 13 µM. The IC50 on Rhodesain was 17 µM; in series [2], greater than 100 µM; in series [4] it was 27 µM; in series [5], 0.4 µM. The “Ratio CC50/IC50” value in series [3] is 33.
The compound `CC(CN(C)C)Nc1c2ccccc2[n+](C)c2c1[nH]c1ccccc12.[Cl-]` (stereo unspecified) showed a half-maximal cytotoxic concentration (CC50) in series [1] of 3 µM. Further, the IC50 against Rhodesain was 5 µM; in series [2] it was greater than 100 µM; in series [4], 10 µM; in series [5] it was 1 µM. In addition, the “Ratio CC50/IC50” value in series [3] is 3.
`C[n+]1c2ccccc2c(NC2CCNCC2)c2[nH]c3ccccc3c21.[Cl-]` came in with a half-maximal cytotoxic concentration (CC50) in series [1] of 62 µM. Also, the IC50 on Rhodesain came to 2 µM; in series [4], 3 µM; in series [5] it was 0.01 µM. For the same compound, the “Ratio CC50/IC50” value in series [3] came out at 6200.
On to `CN(C)CC(C)(C)CNc1c2ccccc2[n+](C)c2c1[nH]c1ccccc12.[Cl-]`, for which the CC50 in series [1] turned out to be 3 µM. Also, the IC50 is 19 µM against Rhodesain, 62 µM in series [2], 26 µM in series [4] and 0.3 µM in series [5]. Further, in series [3], the “Ratio CC50/IC50” value was 10.
`C[n+]1c2ccccc2c(NCCCN2CCCCC2)c2[nH]c3ccccc3c21.[Cl-]` displayed a CC50 in series [1] of 2 µM. Also, the IC50 stood at 5 µM against Rhodesain, 60 µM in series [2], 11 µM in series [4] and 0.06 µM in series [5]. Besides, in series [3], the “Ratio CC50/IC50” value turned out to be 33.
In the case of `CN(C)CCNc1c2ccccc2[n+](C)c2c1[nH]c1ccccc12.[Cl-]`, the CC50 in series [1] was found to be 5.5 µM. For the same compound, the IC50 on Rhodesain turned out to be 7 µM; in series [2], 91 µM; in series [4] it was 23 µM; in series [5] it was 0.7 µM. Moreover, the “Ratio CC50/IC50” value in series [3] came out at 7.9.
`C[n+]1c2ccccc2cc2[n-]c3ccccc3c21.Cl` [CRYPTOLEPINE HYDROCHLORIDE]: the CC50 in series [1] was 1.1 µM. In addition, the IC50 at Rhodesain turned out to be 23 µM; in series [2], 64 µM; in series [4], 28 µM; in series [5], 2 µM. Also, the “Ratio CC50/IC50” value in series [3] is reported as 0.6.
